{"source": "PubChem BioAssay AID1259409", "about": "(Chemical Carcinogenesis Research Information System (CCRIS), 2018)", "origin": "cited, not measured here", "tested_on": "rodent chemically induced tumor inhibition, incidence and multiplicity", "assay": "CCRIS tumor inhibitor studies", "data": [{"smiles": "CC1=C(/C=C/C(C)=C/C=C/C(C)=C/C(=O)NCC(C)O)C(C)(C)CCC1", "note": "(stereo unspecified)", "values": [{"measurement": "tumour outcome (control, treated, inhibition, significance)", "setting": "Carcinogen: N-BUTYL-N-(4-HYDROXYBUTYL)NITROSAMINE, 3817-11-6, Dose [Inhibitor]: 1.5 MMOL/KG DIET DAILY FOR 108 D STARTING ONE WK AFTER THE FINAL CARCINOGEN DOSE (STUDY DURATION: 171 D), Route [Inhibitor]: ORAL, Species: MOUSE, Strain/Sex: BDF/MALE, Target Tissue: Type of Lesion: URINARY BLADDER: TRANSITIONAL CELL CARCINOMA, Dose [Carcinogen]: 5 MG, 2/WK FOR 9 WK, Promoter: NONE USED", "value": "31/55 (56%), 20/55 (36%), 36%, p<0.05"}, {"measurement": "tumour outcome (control, treated, inhibition, significance)", "setting": "Carcinogen: N-BUTYL-N-(4-HYDROXYBUTYL)NITROSAMINE, 3817-11-6, Dose [Inhibitor]: 1.5 MMOL/KG/D IN DIET FOR 108 D STARTING 1 WK POST CARCINOGEN TREATMENT (STUDY DURATION: 171 D), Route [Inhibitor]: ORAL, Species: MOUSE, Strain/Sex: BDF/MALE, Target Tissue: Type of Lesion: URINARY BLADDER: TRANSITIONAL CELL CARCINOMA, Dose [Carcinogen]: 5 MG 2/WK FOR 9 WK, Promoter: NONE USED", "value": "31/55 (56%), 20/55 (36%), 36%, p<0.05"}, {"measurement": "tumour outcome (control, treated, inhibition, significance)", "setting": "Carcinogen: N-NITROSOBIS(2-OXOPROPYL)AMINE, 60599-38-4, Dose [Inhibitor]: 0.25 MMOL/KG OF DIET FOR 364 D STARTING 2 WK AFTER LAST CARCINOGEN DOSE (STUDY DURATION: 55 WK), Route [Inhibitor]: ORAL, Species: HAMSTER, Strain/Sex: SYRIAN/FEMALE, Target Tissue: Type of Lesion: LIVER: CARCINOMA, Dose [Carcinogen]: 20 MG/KG INJECTION GIVEN TWICE 1 WK APART, Promoter: NONE USED", "value": "5%, 19%, -280%, not calculated"}, {"measurement": "tumour outcome (control, treated, inhibition, significance)", "setting": "Carcinogen: N-NITROSOBIS(2-OXOPROPYL)AMINE, 60599-38-4, Dose [Inhibitor]: 0.25 MMOL/KG OF DIET FOR 364 D STARTING 2 WK AFTER LAST CARCINOGEN DOSE (STUDY DURATION: 55 WK), Route [Inhibitor]: ORAL, Species: HAMSTER, Strain/Sex: SYRIAN/FEMALE, Target Tissue: Type of Lesion: PANCREAS: CARCINOMA, Dose [Carcinogen]: 20 MG/KG INJECTION GIVEN TWICE 1 WK APART, Promoter: NONE USED", "value": "38%, 15%, 61%, not calculated"}, {"measurement": "tumour outcome (control, treated, inhibition, significance)", "setting": "Carcinogen: N-NITROSOBIS(2-OXOPROPYL)AMINE, 60599-38-4, Dose [Inhibitor]: 0.25 MMOL/KG OF DIET FOR 364 D STARTING 2 WK AFTER LAST CARCINOGEN DOSE (STUDY DURATION: 55 WK), Route [Inhibitor]: ORAL, Species: HAMSTER, Strain/Sex: SYRIAN/MALE, Target Tissue: Type of Lesion: LIVER: CARCINOMA, Dose [Carcinogen]: 20 MG/KG INJECTION GIVEN TWICE 1 WK APART, Promoter: NONE USED", "value": "7%, 32%, -357%, not calculated"}, {"measurement": "tumour outcome (control, treated, inhibition, significance)", "setting": "Carcinogen: N-NITROSOBIS(2-OXOPROPYL)AMINE, 60599-38-4, Dose [Inhibitor]: 0.25 MMOL/KG OF DIET FOR 364 D STARTING 2 WK AFTER LAST CARCINOGEN DOSE (STUDY DURATION: 55 WK), Route [Inhibitor]: ORAL, Species: HAMSTER, Strain/Sex: SYRIAN/MALE, Target Tissue: Type of Lesion: PANCREAS: CARCINOMA, Dose [Carcinogen]: 20 MG/KG INJECTION GIVEN TWICE 1 WK APART, Promoter: NONE USED", "value": "34%, 24%, 29%, not calculated"}, {"measurement": "tumour outcome (control, treated, inhibition, significance)", "setting": "Carcinogen: N-NITROSOBIS(2-OXOPROPYL)AMINE, 60599-38-4, Dose [Inhibitor]: 0.5 MMOL/KG DIET FOR 357 D STARTING 2 WK AFTER LAST CARCINOGEN DOSE AND INTERRUPTED BY A 1 WK REST PERIOD OF VEHICLE ONL, Route [Inhibitor]: ORAL, Species: HAMSTER, Strain/Sex: SYRIAN/FEMALE, Target Tissue: Type of Lesion: LIVER: HEPATOCELLULAR CARCINOMA, Dose [Carcinogen]: 20 MG/KG INJECTION GIVEN TWICE 1 WK APART, Promoter: NONE USED", "value": "5%, 12%, -140%, not calculated"}, {"measurement": "tumour outcome (control, treated, inhibition, significance)", "setting": "Carcinogen: N-NITROSOBIS(2-OXOPROPYL)AMINE, 60599-38-4, Dose [Inhibitor]: 0.5 MMOL/KG DIET FOR 357 D STARTING 2 WK AFTER LAST CARCINOGEN DOSE AND INTERRUPTED BY A 1 WK REST PERIOD OF VEHICLE ONL, Route [Inhibitor]: ORAL, Species: HAMSTER, Strain/Sex: SYRIAN/FEMALE, Target Tissue: Type of Lesion: PANCREAS: CARCINOMA, Dose [Carcinogen]: 20 MG/KG INJECTION GIVEN TWICE 1 WK APART, Promoter: NONE USED", "value": "38%, 25%, 34%, not calculated"}, {"measurement": "tumour outcome (control, treated, inhibition, significance)", "setting": "Carcinogen: N-NITROSOBIS(2-OXOPROPYL)AMINE, 60599-38-4, Dose [Inhibitor]: 0.5 MMOL/KG DIET FOR 357 D STARTING 2 WK AFTER LAST CARCINOGEN DOSE AND INTERRUPTED BY A 1 WK REST PERIOD OF VEHICLE ONL, Route [Inhibitor]: ORAL, Species: HAMSTER, Strain/Sex: SYRIAN/MALE, Target Tissue: Type of Lesion: LIVER: HEPATOCELLULAR CARCINOMA, Dose [Carcinogen]: 20 MG/KG INJECTION GIVEN TWICE 1 WK APART, Promoter: NONE USED", "value": "7%, 12%, -71%, not calculated"}, {"measurement": "tumour outcome (control, treated, inhibition, significance)", "setting": "Carcinogen: N-NITROSOBIS(2-OXOPROPYL)AMINE, 60599-38-4, Dose [Inhibitor]: 0.5 MMOL/KG DIET FOR 357 D STARTING 2 WK AFTER LAST CARCINOGEN DOSE AND INTERRUPTED BY A 1 WK REST PERIOD OF VEHICLE ONL, Route [Inhibitor]: ORAL, Species: HAMSTER, Strain/Sex: SYRIAN/MALE, Target Tissue: Type of Lesion: PANCREAS: CARCINOMA, Dose [Carcinogen]: 20 MG/KG INJECTION GIVEN TWICE 1 WK APART, Promoter: NONE USED", "value": "34%, 29%, 15%, not calculated"}]}, {"smiles": "CC1=C(O)C(=O)C(C)O1", "note": "(stereo unspecified)", "values": [{"measurement": "tumour outcome (control, treated, inhibition, significance)", "setting": "Carcinogen: BENZO[A]PYRENE, 50-32-8, Dose [Inhibitor]: 0, 25 PPM IN DIET FOR 17 WK BEGINNING 1 WK POST CARCINOGEN TREATMENT (STUDY DURATION: 21 WK), Route [Inhibitor]: ORAL, Species: MOUSE, Strain/Sex: ICR/FEMALE, Target Tissue: Type of Lesion: FORESTOMACH: TUMOR, Dose [Carcinogen]: 1.5 MG IN 0.2 ML CORN OIL 1/WK FOR 4 WK, Promoter: NONE USED", "value": "90%, 74%, 18%, not significant"}, {"measurement": "tumour outcome (control, treated, inhibition, significance)", "setting": "Carcinogen: BENZO[A]PYRENE, 50-32-8, Dose [Inhibitor]: 0, 50 PPM IN DIET FOR 17 WK BEGINNING 1 WK POST CARCINOGEN TREATMENT (STUDY DURATION: 21 WK), Route [Inhibitor]: ORAL, Species: MOUSE, Strain/Sex: ICR/FEMALE, Target Tissue: Type of Lesion: FORESTOMACH: TUMOR, Dose [Carcinogen]: 1.5 MG IN 0.2 ML CORN OIL 1/WK FOR 4 WK, Promoter: NONE USED", "value": "90%, 72%, 20%, p<0.1"}, {"measurement": "tumour outcome (control, treated, inhibition, significance)", "setting": "Carcinogen: BENZO[A]PYRENE, 50-32-8, Dose [Inhibitor]: 0, 75 PPM IN DIET FOR 17 WK BEGINNING 1 WK POST CARCINOGEN TREATMENT (STUDY DURATION: 21 WK), Route [Inhibitor]: ORAL, Species: MOUSE, Strain/Sex: ICR/FEMALE, Target Tissue: Type of Lesion: FORESTOMACH: TUMOR, Dose [Carcinogen]: 1.5 MG IN 0.2 ML CORN OIL 1/WK FOR 4 WK, Promoter: NONE USED", "value": "90%, 62%, 31%, p<0.05"}]}, {"smiles": "Oc1cc(O)c2c(c1)O[C@H](c1ccc(O)c(O)c1)[C@H](O)C2", "values": [{"measurement": "tumour outcome (control, treated, inhibition, significance)", "setting": "Carcinogen: 3-METHYLCHOLANTHRENE, 56-49-5, Dose [Inhibitor]: 0, 2 MG IN 0.1 ML STERILE SALINE 1/D FOR 5 CONSECUTIVE D BEGINNING 30 D POST CARCINOGEN TREATMENT (STUDY DURATION: 20 WK, Route [Inhibitor]: GAVAGE, Species: MOUSE, Strain/Sex: SWISS/MALE, Target Tissue: Type of Lesion: INJECTION SITE: SARCOMA, Dose [Carcinogen]: 745 NMOL IN 0.1 ML DMSO 1/D FOR 2 CONSECUTIVE D, Promoter: NONE USED", "value": "100%, 33%, 67%, p<0.01"}, {"measurement": "tumour outcome (control, treated, inhibition, significance)", "setting": "Carcinogen: 7,12-DIMETHYLBENZ[A]ANTHRACENE, 57-97-6, Dose [Inhibitor]: 0, 2 MG IN 0.1 ML DMSO 2/WK FOR 6 WK ADMINISTERED 30 MIN POST EACH PROMOTER DOSE (STUDY DURATION: 12 WK), Route [Inhibitor]: DERMAL, Species: MOUSE, Strain/Sex: SWISS/MALE, Target Tissue: Type of Lesion: SKIN: PAPILLOMA, Dose [Carcinogen]: 450 NMOL IN 0.1 ML DMSO ONCE, Promoter: CROTON OIL, 8001-28-3", "value": "17/30 (57%), 14/30 (47%), 18%, not significant"}]}, {"smiles": "CCS(=O)(=O)c1ccc(/C=C(\\C)c2ccc3c(c2)C(C)(C)CCC3(C)C)cc1", "values": [{"measurement": "tumour outcome (control, treated, inhibition, significance)", "setting": "Carcinogen: 7,12-DIMETHYLBENZ[A]ANTHRACENE, 57-97-6, Dose [Inhibitor]: 0, 3 MG/KG/D IN FEED REDUCED AFTER 4 WK TO 2.2 MG/KG/D (STUDY DURATION: 13 WK), Route [Inhibitor]: ORAL, Species: RAT, Strain/Sex: SPRAGUE-DAWLEY/FEMALE, Target Tissue: Type of Lesion: MAMMARY GLAND: TUMOR, Dose [Carcinogen]: 15 MG IN ARACHIS OIL ONCE AT 50 D OF AGE, Promoter: NONE USED", "value": "96%, 73%, 24%, not calculated"}]}]}
